From PubChem BioAssay AID248 (DTP/NCI, 2004)
Toxic doses and inconclusive results are not listed.

Tested on: L1210 leukemia ip in BDF1 mice, survival T/C
Assay: NCI In Vivo Anticancer Drug Screen. Data for tumor model L1210 Leukemia (intraperitoneal) in B6D2F1 (BDF1) mice
Conditions: higher = longer survival
In short: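 Value reflects the ratio of survival in compound-treated mice to survival in vehicle-treated controls, with both groups carrying the same transplanted tumor.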

[1] = endpoint: mean survival time, dose: 100.0 mg/kg/injection, schedule: Q01DX009 (ip), vehicle: saline with Tween-80
[2] = endpoint: mean survival time, dose: 200.0 mg/kg/injection, schedule: Q01DX009 (ip), vehicle: saline with Tween-80
[3] = endpoint: mean survival time, dose: 50.0 mg/kg/injection, schedule: Q04DX003 (ip), vehicle: Klucel (hydroxypropylcellulose) (HPC)
[4] = endpoint: mean survival time, dose: 100.0 mg/kg/injection, schedule: Q04DX003 (ip), vehicle: saline with Tween-80
[5] = endpoint: mean survival time, dose: 200.0 mg/kg/injection, schedule: Q04DX003 (ip), vehicle: saline with Tween-80
[6] = endpoint: mean survival time, dose: 400.0 mg/kg/injection, schedule: Q04DX003 (ip), vehicle: saline with Tween-80
[7] = endpoint: mean survival time, dose: 100.0 mg/kg/injection, schedule: Q01DX001 (ip), vehicle: other
[8] = endpoint: mean survival time, dose: 200.0 mg/kg/injection, schedule: Q01DX001 (ip), vehicle: other
[9] = endpoint: mean survival time, dose: 400.0 mg/kg/injection, schedule: Q01DX001 (ip), vehicle: other
[10] = endpoint: mean survival time, dose: 200.0 mg/kg/injection, schedule: Q01DX001 (ip), vehicle: saline
[11] = endpoint: mean survival time, dose: 100.0 mg/kg/injection, schedule: Q01DX009 (ip), vehicle: Klucel (hydroxypropylcellulose) (HPC)
[12] = endpoint: mean survival time, dose: 200.0 mg/kg/injection, schedule: Q01DX009 (ip), vehicle: Klucel (hydroxypropylcellulose) (HPC)
[13] = endpoint: mean survival time, dose: 400.0 mg/kg/injection, schedule: Q01DX009 (ip), vehicle: Klucel (hydroxypropylcellulose) (HPC)
[14] = endpoint: mean survival time, dose: 100.0 mg/kg/injection, schedule: Q04DX003 (ip), vehicle: Klucel (hydroxypropylcellulose) (HPC)

With `CCN(CC)C(=S)[S][Sn]([Cl])([c]1ccccc1)[c]1ccccc1` the T/C (endpoint: mean survival time, dose: 5.0 mg/kg/injection, schedule: Q01DX001 (ip), vehicle: other) was 102 % of control, the T/C (endpoint: mean survival time, dose: 10.0 mg/kg/injection, schedule: Q01DX001 (ip), vehicle: other) was 104 % of control and the T/C (endpoint: mean survival time, dose: 20.0 mg/kg/injection, schedule: Q01DX001 (ip), vehicle: other) was 102 % of control. For the same molecule, the T/C (endpoint: mean survival time, dose: 40.0 mg/kg/injection, schedule: Q01DX001 (ip), vehicle: other) was 102 % of control and the T/C (endpoint: mean survival time, dose: 80.0 mg/kg/injection, schedule: Q01DX001 (ip), vehicle: other) was 104 % of control.
For `O=C(O)c1ccc(S(=O)(=O)O)cc1C(=O)O`, the T/C (endpoint: mean survival time, dose: 50.0 mg/kg/injection, schedule: Q01DX001 (sc), vehicle: olive oil, sesame oil, peanut oil) was 104 % of control, the T/C (endpoint: mean survival time, dose: 100.0 mg/kg/injection, schedule: Q01DX001 (sc), vehicle: olive oil, sesame oil, peanut oil) was 102 % of control and the T/C [1] was 89 % of control. For the same molecule, the T/C (endpoint: mean survival time, dose: 100.0 mg/kg/injection, schedule: Q04DX003 (ip), vehicle: saline) was 104 % of control, the T/C (endpoint: mean survival time, dose: 200.0 mg/kg/injection, schedule: Q01DX001 (sc), vehicle: olive oil, sesame oil, peanut oil) was 96 % of control and the T/C [2] was 88 % of control. For the same molecule, the T/C (endpoint: mean survival time, dose: 200.0 mg/kg/injection, schedule: Q04DX003 (ip), vehicle: saline) was 102 % of control, the T/C (endpoint: mean survival time, dose: 400.0 mg/kg/injection, schedule: Q01DX001 (sc), vehicle: olive oil, sesame oil, peanut oil) was 98 % of control and the T/C (endpoint: mean survival time, dose: 400.0 mg/kg/injection, schedule: Q04DX003 (ip), vehicle: saline) was 101 % of control.
In the case of `CCC1CC(O)c2c(O)c3c(c(O)c2C1O)C(=O)c1cccc(O)c1C3=O` (stereo unspecified) (tested in a mixture with another compound), the T/C (endpoint: mean survival time, dose: 0.25 mg/kg/injection, schedule: Q01DX015 (ip), vehicle: carboxymethylcellulose (CMC)) is reported as 101 % of control, the T/C (endpoint: mean survival time, dose: 0.5 mg/kg/injection, schedule: Q01DX015 (ip), vehicle: carboxymethylcellulose (CMC)) is reported as 101 % of control and the T/C (endpoint: mean survival time, dose: 3.12 mg/kg/injection, schedule: Q01DX001 (ip), vehicle: carboxymethylcellulose (CMC)) is reported as 93 % of control.
In the case of `CCN1/C(=C/c2ccc3ccccc3[n+]2CC)C=Cc2ccccc21`, the T/C (endpoint: mean survival time, dose: 2.0 mg/kg/injection, schedule: Q01DX001 (ip), vehicle: other) is reported as 103 % of control, the T/C (endpoint: mean survival time, dose: 8.0 mg/kg/injection, schedule: Q01DX001 (ip), vehicle: other) is reported as 110 % of control and the T/C (endpoint: mean survival time, dose: 9.5 mg/kg/injection, schedule: Q01DX001 (ip), vehicle: other) is reported as 101 % of control.
For `CCCCCCCCCCCCCCCCCc1cc(=O)n(-c2ccc(NC(=O)CCC(=O)OC)cc2)n1C`, the T/C (endpoint: mean survival time, dose: 12.5 mg/kg/injection, schedule: Q04DX003 (ip), vehicle: Klucel (hydroxypropylcellulose) (HPC)) was 93 % of control and the T/C [3] was 86 % of control.
With `Cc1ccc(C2OC23CC(C)(C)c2ccccc2C3=O)cc1` (stereo unspecified) the T/C [4] was 93 % of control, the T/C [5] was 96 % of control and the T/C [6] was 93 % of control.
In the case of `O=C(NO)N/N=C/c1ccc(/C=N/NC(=O)NO)cc1`, the T/C [7] is reported as 100 % of control, the T/C [1] is reported as 101 % of control and the T/C (endpoint: mean survival time, dose: 100.0 mg/kg/injection, schedule: Q04DX003 (ip), vehicle: other) is reported as 104 % of control. For the same molecule, the T/C [8] was 100 % of control, the T/C [2] was 95 % of control and the T/C (endpoint: mean survival time, dose: 200.0 mg/kg/injection, schedule: Q04DX003 (ip), vehicle: other) was 95 % of control. The T/C [9] was 102 % of control, the T/C (endpoint: mean survival time, dose: 400.0 mg/kg/injection, schedule: Q01DX009 (ip), vehicle: saline with Tween-80) was 101 % of control and the T/C (endpoint: mean survival time, dose: 400.0 mg/kg/injection, schedule: Q04DX003 (ip), vehicle: other) was 96 % of control.
In the case of `O=S(=O)(O)c1ccc(N=Nc2ccc(O)c(Cl)c2)cc1`, the T/C (endpoint: mean survival time, dose: 55.0 mg/kg/injection, schedule: Q01DX Z (ip), vehicle: methylcellulose (MC)) is reported as 94 % of control, the T/C (endpoint: mean survival time, dose: 83.0 mg/kg/injection, schedule: Q01DX Z (ip), vehicle: methylcellulose (MC)) is reported as 96 % of control and the T/C (endpoint: mean survival time, dose: 125.0 mg/kg/injection, schedule: Q01DX Z (ip), vehicle: methylcellulose (MC)) is reported as 106 % of control.
With `CCOC(=O)CCNC1CCCCC1` the T/C (endpoint: mean survival time, dose: 100.0 mg/kg/injection, schedule: Q01DX Z (ip), vehicle: methylcellulose (MC)) was 96 % of control and the T/C (endpoint: mean survival time, dose: 200.0 mg/kg/injection, schedule: Q01DX Z (ip), vehicle: methylcellulose (MC)) was 94 % of control.
In the case of `Cc1c(NS(=O)(=O)c2ccccc2)c(C)c(NS(=O)(=O)c2ccccc2)c(C)c1NS(=O)(=O)c1ccccc1`, the T/C (endpoint: mean survival time, dose: 50.0 mg/kg/injection, schedule: Q01DX009 (ip), vehicle: saline with Tween-80) is reported as 96 % of control, the T/C [1] is reported as 96 % of control and the T/C [2] is reported as 88 % of control.
With `BrC12CC3CC(CC(C3)C1)C2` the T/C [4] was 98 % of control, the T/C [5] was 102 % of control and the T/C [6] was 98 % of control.
For `C/C(=N\N=C(/C)c1cccc(N)c1)c1cccc(N)c1`, the T/C [10] was 87 % of control and the T/C (endpoint: mean survival time, dose: 400.0 mg/kg/injection, schedule: Q01DX001 (ip), vehicle: saline) was 87 % of control.
With `CN(C)N=Nc1cccc(C(N)=O)c1` the T/C (endpoint: mean survival time, dose: 5.0 mg/kg/injection, schedule: Q01DX009 (ip), vehicle: Klucel (hydroxypropylcellulose) (HPC)) was 104 % of control, the T/C (endpoint: mean survival time, dose: 10.0 mg/kg/injection, schedule: Q01DX009 (ip), vehicle: Klucel (hydroxypropylcellulose) (HPC)) was 115 % of control and the T/C (endpoint: mean survival time, dose: 20.0 mg/kg/injection, schedule: Q01DX009 (ip), vehicle: Klucel (hydroxypropylcellulose) (HPC)) was 121 % of control. For the same molecule, the T/C (endpoint: median survival time, dose: 39.0 mg/kg/injection, schedule: Q01DX009 (ip), vehicle: steriod suspending solution) was 150 % of control, the T/C (endpoint: median survival time, dose: 65.0 mg/kg/injection, schedule: Q01DX001 (ip), vehicle: steriod suspending solution) was 105 % of control and the T/C (endpoint: median survival time, dose: 65.0 mg/kg/injection, schedule: Q01DX009 (ip), vehicle: steriod suspending solution) was 95 % of control. The T/C (endpoint: median survival time, dose: 108.0 mg/kg/injection, schedule: Q01DX001 (ip), vehicle: steriod suspending solution) was 120 % of control and the T/C (endpoint: median survival time, dose: 180.0 mg/kg/injection, schedule: Q04DX003 (ip), vehicle: steriod suspending solution) was 105 % of control.
For `N#CC(NC(=O)NCCO)c1ccccc1` (stereo unspecified), the T/C [4] was 107 % of control, the T/C [5] was 96 % of control and the T/C [6] was 101 % of control.
`Cc1cccc(Cl)c1NC(=O)c1ccc(C(=O)Nc2c(C)cccc2Cl)cc1` was tested, and the T/C [11] was 87 % of control, the T/C [12] was 94 % of control and the T/C [13] was 94 % of control.
For `COc1ccc(Nc2cc(C)nc(N)n2)cc1`, the T/C (endpoint: mean survival time, dose: 25.0 mg/kg/injection, schedule: Q01DX Z (ip), vehicle: methylcellulose (MC)) was 97 % of control and the T/C (endpoint: mean survival time, dose: 50.0 mg/kg/injection, schedule: Q01DX Z (ip), vehicle: methylcellulose (MC)) was 105 % of control.
`Cn1c(=O)c2[nH]c(C3CC3)nc2n(C)c1=O` was tested, and the T/C (endpoint: mean survival time, dose: 50.0 mg/kg/injection, schedule: Q01DX001 (ip), vehicle: saline) was 113 % of control, the T/C (endpoint: mean survival time, dose: 100.0 mg/kg/injection, schedule: Q01DX001 (ip), vehicle: saline) was 101 % of control and the T/C [10] was 98 % of control.
With `O=NN(CCCl)C(=O)NC12CC3CC(CC(C3)C1)C2` the T/C (endpoint: mean survival time, dose: 62.0 mg/kg/injection, schedule: Q01DX001 (ip), vehicle: carboxymethylcellulose (CMC)) was 270 % of control, the T/C (endpoint: mean survival time, dose: 93.0 mg/kg/injection, schedule: Q01DX001 (ip), vehicle: carboxymethylcellulose (CMC)) was 250 % of control and the T/C (endpoint: mean survival time, dose: 125.0 mg/kg/injection, schedule: Q01DX001 (ip), vehicle: carboxymethylcellulose (CMC)) was 255 % of control. For the same molecule, the T/C (endpoint: mean survival time, dose: 187.0 mg/kg/injection, schedule: Q01DX001 (ip), vehicle: carboxymethylcellulose (CMC)) was 182 % of control.
With `COC(=O)C1C(=O)C(C(=O)OC)C2C(C(=O)OC)C(=O)C(C(=O)OC)C12` (stereo unspecified) the T/C (endpoint: mean survival time, dose: 100.0 mg/kg/injection, schedule: Q01DX001 (ip), vehicle: Klucel (hydroxypropylcellulose) (HPC)) was 104 % of control, the T/C [11] was 93 % of control and the T/C [14] was 97 % of control. For the same molecule, the T/C (endpoint: mean survival time, dose: 200.0 mg/kg/injection, schedule: Q01DX001 (ip), vehicle: Klucel (hydroxypropylcellulose) (HPC)) was 101 % of control, the T/C [12] was 95 % of control and the T/C (endpoint: mean survival time, dose: 200.0 mg/kg/injection, schedule: Q04DX003 (ip), vehicle: Klucel (hydroxypropylcellulose) (HPC)) was 96 % of control. The T/C (endpoint: mean survival time, dose: 400.0 mg/kg/injection, schedule: Q01DX001 (ip), vehicle: Klucel (hydroxypropylcellulose) (HPC)) was 103 % of control, the T/C [13] was 98 % of control and the T/C (endpoint: mean survival time, dose: 400.0 mg/kg/injection, schedule: Q04DX003 (ip), vehicle: Klucel (hydroxypropylcellulose) (HPC)) was 102 % of control.
In the case of `CCCCC(=O)NC(O)C(Cl)(Cl)C(C)Cl` (stereo unspecified), the T/C (endpoint: mean survival time, dose: 50.0 mg/kg/injection, schedule: Q01DX001 (ip), vehicle: other) is reported as 112 % of control, the T/C [7] is reported as 91 % of control and the T/C [8] is reported as 101 % of control. For the same molecule, the T/C [9] was 101 % of control.
`CN(C(=O)c1c(Cl)[nH]c2ccccc12)c1ccccc1` was tested, and the T/C (endpoint: mean survival time, dose: 25.0 mg/kg/injection, schedule: Q04DX003 (ip), vehicle: Klucel (hydroxypropylcellulose) (HPC)) was 96 % of control, the T/C [3] was 95 % of control and the T/C [14] was 90 % of control.
